Experimental findings from ChEMBL document CHEMBL2057175, “New structure-activity relationships of A- and D-ring modified steroidal aromatase inhibitors: design, synthesis, and biochemical evaluation” (J Med Chem, 2012) are described below.

As a reminder, the IC50 is the point on the concentration scale where inhibition reaches its midpoint.

Data set [1] deals with T1, Aromatase (Homo sapiens, UniProt P11511).
T1 sequence (P11511 whole entry): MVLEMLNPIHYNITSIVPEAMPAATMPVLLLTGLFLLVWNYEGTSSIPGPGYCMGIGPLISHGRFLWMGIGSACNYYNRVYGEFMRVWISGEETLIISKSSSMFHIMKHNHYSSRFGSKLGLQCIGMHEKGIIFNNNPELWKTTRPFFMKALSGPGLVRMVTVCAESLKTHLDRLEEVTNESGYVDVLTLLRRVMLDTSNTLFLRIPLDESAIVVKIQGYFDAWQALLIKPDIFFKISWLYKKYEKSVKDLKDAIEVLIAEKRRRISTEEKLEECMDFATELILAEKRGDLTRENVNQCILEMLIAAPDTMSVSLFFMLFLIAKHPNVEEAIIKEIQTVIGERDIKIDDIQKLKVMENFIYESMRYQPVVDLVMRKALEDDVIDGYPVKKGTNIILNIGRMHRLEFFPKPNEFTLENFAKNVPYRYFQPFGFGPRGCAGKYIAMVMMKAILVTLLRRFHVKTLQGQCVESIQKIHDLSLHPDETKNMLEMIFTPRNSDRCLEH
As to the kind of experiment: Inhibition of aromatase in human microsomes using [1beta-3H]androstenedione as substrate after 5 mins by Dixon plot analysis. Conditions: read-out: Ki(app); call rule not given here. Also on record: species or system Microsome.

The target in data set [2] is T1, Aromatase. As to the kind of experiment: Competitive inhibition of aromatase in human microsomes using [1beta-3H]androstenedione as substrate after 5 mins by Lineweaver-Burk plot analysis. Also on record: species or system Microsome.
Data set [3] concerns the target T1, Aromatase. Conditions: 0.25 h, read-out: INH.
Description: Inhibition of aromatase in human placental microsomes using [1beta-3H]androstenedione as substrate at 2 uM after 15 mins by liquid scintillation counting
In data set [4] the target is T1, Aromatase. As to the kind of experiment: Inhibition of aromatase in human placental microsomes using [1beta-3H]androstenedione as substrate after 15 mins by liquid scintillation counting. Also on record: species or system Placenta.

In the case of `C[C@]12CCC=C[C@@H]1CC[C@@H]1[C@@H]2CC[C@]2(C)C(=O)CC[C@@H]12`, the Ki on Aromatase [1] is 50 nM. The “inhibition (INH)” value at Aromatase [2] was “Active”.
Regarding `C[C@]12C[C@H]3O[C@H]3C[C@@H]1CC[C@@H]1[C@@H]2CC[C@]2(C)C(=O)CC[C@@H]12`, on Aromatase [3], the inhibition at 2 µM was found to be 70.7%. Further, at Aromatase [4], the IC50 was 1150 nM.
As for `C[C@]12CC[C@H]3O[C@H]3[C@@H]1CC[C@@H]1[C@@H]2CC[C@]2(C)C(=O)CC[C@@H]12`, at Aromatase [2], the “inhibition (INH)” value is “Active”.
As to `C[C@]12CCCC=C1CC[C@@H]1[C@@H]2CC[C@]2(C)C(=O)CC[C@@H]12`, at Aromatase [3], the inhibition at 2 µM is 97.8%.
With `C[C@]12CC[C@@H](O)C=C1CC[C@@H]1[C@@H]2CC[C@]2(C)C(=O)CC[C@@H]12`, the inhibition at 2 µM on Aromatase [3] amounted to 60.8%.
Same read-out and setting: then `C[C@]12C=CCC[C@@H]1CC[C@@H]1[C@@H]2CC[C@]2(C)C(=O)CC[C@@H]12`, with 56%.
For `C[C@]12CC=CC[C@@H]1CC[C@@H]1[C@@H]2CC[C@]2(C)C(=O)CC[C@@H]12`, the inhibition at 2 µM at Aromatase [3] was found to be 72%. Further, 1730 nM corresponded to half-maximal inhibition on Aromatase [4] (IC50). In addition, the Ki on Aromatase [1] was 9500 nM. For the same compound, on Aromatase [2], the “inhibition (INH)” value is on record as “Active”.
Take `CC(=O)OC1=CCC[C@@]2(C)[C@H]1CC[C@@H]1[C@@H]2CC[C@]2(C)C(=O)CC[C@@H]12`: the inhibition at 2 µM at Aromatase [3] is 33.9%.
On to `C[C@]12CC[C@H](O)C=C1CC[C@@H]1[C@@H]2CC[C@]2(C)C(=O)CC[C@@H]12`, for which, on Aromatase [3], the inhibition at 2 µM was 93.1%. Further, the “inhibition (INH)” value on Aromatase [2] is “Active”.
For `C[C@]12[C@@H](CC[C@@H]3[C@@H]1CC[C@]1(C)C(=O)CC[C@@H]31)CC[C@@H]1O[C@@H]12`, the inhibition at 2 µM on Aromatase [3] is 40%.
As for `CC(=O)O[C@H]1CC[C@H]2[C@@H]3CCC4=C[C@@H](O)CC[C@]4(C)[C@H]3CC[C@]12C`, the inhibition at 2 µM on Aromatase [3] is 4.6%.
Still for that read-out and setting: as for `C[C@]12CCC=C[C@@H]1CC[C@@H]1[C@@H]2CC[C@]2(C)C(=S)CC[C@@H]12`, the figure is 41.5%; as for `CC(=O)Oc1ccccc1C(=O)OC1=C2CC[C@@H]3[C@H](CC[C@]4(C)C(=O)CC[C@@H]34)[C@@]2(C)CCC1=O`, 68.7%.
Regarding `C[C@]12CC[C@H]3[C@@H](CC[C@@]45O[C@@H]4CCC[C@]35C)[C@@H]1CCC2=O`, on Aromatase [3], the inhibition at 2 µM is 84.6%. Also, the IC50 against Aromatase [4] was found to be 970 nM. For the same compound, the Ki at Aromatase [1] came out at 86 nM. For the same compound, the “inhibition (INH)” value on Aromatase [2] is recorded as “Active”.
